How the values were obtained:
Test in all cases: cells
CTB-1 = assay type: functional, cell-based; conditions: Homo sapiens
Description: SANGER: Inhibition of human CTB-1 cell growth in a cell viability assay.

LU-134-A = assay type: functional, cell-based; conditions: Homo sapiens
Description: SANGER: Inhibition of human LU-134-A cell growth in a cell viability assay.

no-11 = assay type: functional, cell-based, Homo sapiens; conditions: Homo sapiens;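 further: growth inhibition of human NO-11 cells, read out with a cell viability assay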
Description: SANGER: Inhibition of human no-11 cell growth in a cell viability assay.

NB10 = assay type: functional, cell-based, Homo sapiens; conditions: Homo sapiens, NB10;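 further: growth inhibition of NB10 cells, read out by a cell viability assay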
Description: SANGER: Inhibition of human NB10 cell growth in a cell viability assay.

MS-1 = assay type: functional, cell-based; conditions: Homo sapiens
Description: SANGER: Inhibition of human MS-1 cell growth in a cell viability assay.

TE-9 = assay type: functional, cell-based, Homo sapiens; conditions: Homo sapiens, TE-9;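 further: cell growth inhibition, measured with a cell viability readout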
Description: SANGER: Inhibition of human TE-9 cell growth in a cell viability assay.

NCI-H1581 = assay type: functional, cell-based, Homo sapiens; conditions: Homo sapiens, NCI-H1581;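 further: cell growth inhibition read out by a viability assay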
Description: SANGER: Inhibition of human NCI-H1581 cell growth in a cell viability assay.

SK-PN-DW = assay type: functional, cell-based; conditions: Homo sapiens;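 further: growth inhibition measured with a viability assay on these cells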
Description: SANGER: Inhibition of human SK-PN-DW cell growth in a cell viability assay.

NB6 = assay type: functional, cell-based, Homo sapiens; conditions: Homo sapiens, NB6;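 further: growth inhibition of NB6 cells, read out by a cell viability assay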
Description: SANGER: Inhibition of human NB6 cell growth in a cell viability assay.

RCC10RGB = assay type: functional, cell-based, Homo sapiens; conditions: Homo sapiens, RCC10RGB;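 further: growth inhibition of human RCC10RGB cells, read out by a cell viability assay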
Description: SANGER: Inhibition of human RCC10RGB cell growth in a cell viability assay.

CW-2 = assay type: functional, cell-based, Homo sapiens; conditions: Homo sapiens, CW-2;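 further: growth inhibition of CW-2 cells, read out by a cell viability assay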
Description: SANGER: Inhibition of human CW-2 cell growth in a cell viability assay.

U-266 = assay type: functional, cell-based; conditions: Homo sapiens
Description: SANGER: Inhibition of human U-266 cell growth in a cell viability assay.

EW-18 = assay type: functional, cell-based; conditions: Homo sapiens;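 further: growth inhibition of EW-18 cells, read out by a cell viability assay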
Description: SANGER: Inhibition of human EW-18 cell growth in a cell viability assay.

SW 954 = assay type: functional, cell-based, Homo sapiens; conditions: Homo sapiens, SW 954;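 further: growth inhibition of SW954 human cancer cells, read out as cell viability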
Description: SANGER: Inhibition of human SW954 cell growth in a cell viability assay.

RS4-11 = assay type: functional, cell-based; conditions: Homo sapiens;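 further: growth inhibition of RS4-11 cells, read out by a cell viability assay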
Description: SANGER: Inhibition of human RS4-11 cell growth in a cell viability assay.

CCRF-CEM = assay type: functional, cell-based; conditions: Homo sapiens;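 further: inhibition of CCRF-CEM cell growth, measured by a cell viability assay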
Description: SANGER: Inhibition of human CCRF-CEM cell growth in a cell viability assay.

NCI-H1299 = assay type: functional, cell-based, Homo sapiens; conditions: Homo sapiens, NCI-H1299;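 further: growth inhibition of human NCI-H1299 cells, read out by a cell viability assay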
Description: SANGER: Inhibition of human NCI-H1299 cell growth in a cell viability assay.

NB5 = assay type: functional, cell-based, Homo sapiens; conditions: Homo sapiens, NB5;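 further: growth inhibition of NB5 cells, read out as cell viability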
Description: SANGER: Inhibition of human NB5 cell growth in a cell viability assay.

BE-13 = assay type: functional, cell-based; conditions: Homo sapiens;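 further: growth inhibition of human BE-13 cells, measured with a cell viability assay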
Description: SANGER: Inhibition of human BE-13 cell growth in a cell viability assay.

ETK-1 = assay type: functional, cell-based, Homo sapiens; conditions: Homo sapiens, ETK-1;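 further: growth inhibition of human ETK-1 cells, read out with a cell viability assay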
Description: SANGER: Inhibition of human ETK-1 cell growth in a cell viability assay.

KMOE-2 = assay type: functional, cell-based; conditions: Homo sapiens;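 further: growth inhibition of human KMOE-2 cells, read out with a cell viability assay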
Description: SANGER: Inhibition of human KMOE-2 cell growth in a cell viability assay.

CGTH-W-1 = assay type: functional, cell-based, Homo sapiens; conditions: Homo sapiens, CGTH-W-1;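 further: growth inhibition of human CGTH-W-1 cells measured by cell viability assay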
Description: SANGER: Inhibition of human CGTH-W-1 cell growth in a cell viability assay.

DMS-114 = assay type: functional, cell-based, Homo sapiens; conditions: Homo sapiens, DMS-114
NB13 = assay type: functional, cell-based, Homo sapiens; conditions: Homo sapiens, NB13;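 further: cell viability readout measuring growth inhibition of human NB13 cells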
Description: SANGER: Inhibition of human NB13 cell growth in a cell viability assay.

NOS-1 = assay type: functional, cell-based, Homo sapiens; conditions: Homo sapiens, NOS-1;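 further: growth inhibition of the human NOS-1 cell line, read out with a cell viability assay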
Description: SANGER: Inhibition of human NOS-1 cell growth in a cell viability assay.

ALL-PO = assay type: functional, cell-based; conditions: Homo sapiens;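 further: growth inhibition of ALL-PO cells, read out by a cell viability assay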
Description: SANGER: Inhibition of human ALL-PO cell growth in a cell viability assay.

| SMILES | IC50 (CTB-1) [µM] | IC50 (LU-134-A) [µM] | IC50 (no-11) [µM] | IC50 (NB10) [µM] | IC50 (MS-1) [µM] | IC50 (TE-9) [µM] | IC50 (NCI-H1581) [µM] | IC50 (SK-PN-DW) [µM] | IC50 (NB6) [µM] | IC50 (RCC10RGB) [µM] | IC50 (CW-2) [µM] | IC50 (U-266) [µM] | IC50 (EW-18) [µM] | IC50 (SW 954) [µM] | IC50 (RS4-11) [µM] | IC50 (CCRF-CEM) [µM] | IC50 (NB5) [µM] | IC50 (BE-13) [µM] | IC50 (ETK-1) [µM] | IC50 (KMOE-2) [µM] | also measured |
| --- | --- | --- | --- | --- | --- | --- | --- | --- | --- | --- | --- | --- | --- | --- | --- | --- | --- | --- | --- | --- | --- |
| C=C1C(=O)O[C@@H]2C3O[C@]3(C)CC/C=C(\C)CC[C@@H]12 (some centres not stated) | 3.85 | > 5 | > 5 | > 5 | > 5 | > 5 | > 5 | > 5 | > 5 | > 5 | > 5 | > 5 | > 5 | > 5 | > 5 | > 5 | > 5 | > 5 | > 5 | > 5 | IC50 (NCI-H1299): > 5 µM; IC50 (CGTH-W-1): > 5 µM; IC50 (DMS-114): > 5 µM; IC50 (NB13): > 5 µM; IC50 (NOS-1): > 5 µM; IC50 (ALL-PO): > 5 µM |
| CC1=C2C[C@H]3[C@@H](CC=C4C[C@@H](O)CC[C@@]43C)[C@@H]2CC[C@]12O[C@@H]1C[C@H](C)CN[C@H]1[C@H]2C [CYCLOPAMINE] | > 16 | > 16 | > 16 | > 16 | > 16 | > 16 | > 16 | > 16 | > 16 | > 16 | > 16 | > 16 | > 16 | > 16 | > 16 | > 16 | > 16 | > 16 | > 16 | > 16 | IC50 (CGTH-W-1): > 16 µM; IC50 (DMS-114): > 16 µM; IC50 (NB13): > 16 µM; IC50 (NOS-1): > 16 µM; IC50 (ALL-PO): 11.8 µM |
| CS(=O)(=O)CCNCc1ccc(-c2ccc3ncnc(Nc4ccc(OCc5cccc(F)c5)c(Cl)c4)c3c2)o1 [LAPATINIB] | > 2 | > 2 | > 2 | > 2 | > 2 | 0.745 | > 2 | > 2 | > 2 | > 2 | > 2 | > 2 | > 2 | > 2 | > 2 | > 2 | > 2 | > 2 | > 2 | > 2 | IC50 (CGTH-W-1): > 2 µM; IC50 (DMS-114): > 2 µM; IC50 (NB13): > 2 µM; IC50 (NOS-1): > 2 µM; IC50 (ALL-PO): > 2 µM |
| CCc1nc(N)nc(N)c1-c1ccc(Cl)cc1 [PYRIMETHAMINE] | > 20 | > 20 | > 20 | > 20 | > 20 | > 20 | > 20 | > 20 | > 20 | > 20 | > 20 | 5.13 | > 20 | > 20 | > 20 | 9.39 | > 20 | 7.77 | 4.1 | > 20 | IC50 (NCI-H1299): > 20 µM; IC50 (CGTH-W-1): 17.5 µM; IC50 (DMS-114): > 20 µM; IC50 (NB13): > 20 µM; IC50 (NOS-1): 6.66 µM; IC50 (ALL-PO): 1.19 µM |
| O=C(/C=C/c1ccccc1)NC(NC(=S)Nc1cccc2cccnc12)C(Cl)(Cl)Cl (configuration not stated) [SALUBRINAL] | > 16 | > 16 | > 16 | > 16 | > 16 | > 16 | > 16 | > 16 | > 16 | > 16 | > 16 | > 16 | > 16 | > 16 | > 16 | > 16 | > 16 | 8.27 | > 16 | 13.1 | IC50 (CGTH-W-1): > 16 µM; IC50 (DMS-114): > 16 µM; IC50 (NB13): > 16 µM; IC50 (NOS-1): > 16 µM; IC50 (ALL-PO): 4.09 µM |
